In patent publication US10138242B2, “Pyrazolopyridine derivatives and their use in therapy” (HELMHOLTZ ZENTRUM MUENCHEN—DEUTSCHES FORSCHUNGSZENTRUM FUER …, priority 2015, dated 2018) one finds IC50 and EC50 data, which are given here for 28 compounds.

Where two headings read alike, the source gives them in different places.

As a reminder, the IC50 is the concentration at which inhibition is half-maximal. The EC50 is the concentration that produces a half-maximal response.

Experiment [1] has as its system T. brucei brucei bloodstream form parasites (strain Lister 427). As to the kind of experiment: Antitrypanosomal activity assay (resazurin; FIG. 2). It is filed as cell-based. The conditions noted are these: Trypanosoma brucei; 66 h + 6 h resazurin. Here is the method:
(A) The trypanosoma cell count and growth were evaluated at different doses of compounds of the invention.
Antitrypanosomal activity was tested on T. brucei brucei bloodstream from parasites (strain—Lister 427, VATMITat 1.2). Stock solutions of compounds (50 mM) were prepared in DMSO. Two fold serial dilutions of each compound (10 wells in each row) were prepared in 96 well plates in HMI111 medium (100 μl/well; quadruplicates; cf. also Hirumi et al., J. Parasitol. 75 (1989), 985-989). One well without compound, and one well with media alone were included in each row. […] The plates were incubated for 66 hours at 37° C. in the incubator with 5% CO2. 20 μl resazurin (Sigma, 0.125 mg/ml in Hanks Balanced Salt Solution) was added to all wells and the plate was further incubated for 6 hours. Change in color of resazurin (blue to pink) by living cells was measured with a 96 well plate reader (excitation at 530 nm, emission at 585 nm, filter cut-off: 570 nm). Percent inhibition values were calculated by setting the well without compound to “0% inhibition”.
In general terms: The colour change of resazurin is a common sign of viable cells or microbes.

Experiment [2] concerns the target PEX5-PEX14 complex (biotin-coupled PEX5 peptide, His-tagged T. brucei PEX14) (Trypanosoma brucei brucei, UniProt Q38CL4). Nature of the experiment: biochemical. The format is binding. The note with it: 30 nM PEX5, 30 nM PEX14, quadruplicate. The text has this:
(§1) The assay uses two types of beads: donor beads are coupled with streptavidin, and acceptor beads are coupled with an anti His-tag antibody. Upon excitation with light of a wavelength of 680 nm the donor beads produce reactive oxygen species that travel in solution only for a limited distance. If the acceptor beads are within that travel distance, it will absorb the reactive oxygen and emit light in the range of 520-620 nm. […] Thus, PEX5-PEX14 complex dissociation by a ligand caused decrease in light emission as the donor and acceptor beads were separated. Typically, we used 30 nM PEX5, 30 nM PEX14 and bead concentrations of 5 μg/mL. The PEX5-PEX14 complex was incubated with varying concentrations of inhibitor for 1 hour. Next, the beads were added and the system allowed to equilibrate for another hour. The raw data were fitted to four parameter sigmoidal curves by Origin software and EC50 values calculated. Each measurement was performed in quadruplicate and every experiment was accompanied with blank and reference samples (using non-biotynylated PEX5 peptide as a binding competitor).

Experiment [3] deals with PEX5-PEX14 complex (biotin-coupled PEX5 peptide, His-tagged T. brucei PEX14). Nature of the experiment: biochemical. The format is binding. The note with it: 30 nM PEX5, 30 nM PEX14; quadruplicate; read-out: AlphaScreen EC50 [μM] (±SD).
From the text: as §1
A general note: Bead proximity is the source of the signal in Alpha formats.

Where [4] appears, read: read-out: AlphaScreen EC50 [μM] (±SD).

Chain of PEX5-PEX14 complex (biotin-coupled PEX5 peptide, His-tagged T. brucei PEX14) (Trypanosoma brucei brucei, UniProt Q38CL4) (Q38CL4 1-366, one chain of several): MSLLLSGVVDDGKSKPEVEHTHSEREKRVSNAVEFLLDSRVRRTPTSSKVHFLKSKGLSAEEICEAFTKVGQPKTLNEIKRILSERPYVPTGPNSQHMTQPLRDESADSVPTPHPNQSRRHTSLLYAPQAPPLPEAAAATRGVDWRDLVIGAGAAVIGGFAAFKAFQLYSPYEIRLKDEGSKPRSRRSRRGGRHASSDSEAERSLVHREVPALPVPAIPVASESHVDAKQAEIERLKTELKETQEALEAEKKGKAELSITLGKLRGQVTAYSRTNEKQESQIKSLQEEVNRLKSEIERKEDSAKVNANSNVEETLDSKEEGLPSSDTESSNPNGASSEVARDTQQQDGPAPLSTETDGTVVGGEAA

Regarding `COc1ccc(CN2CCc3c(c(C(=O)NCc4cccc5ccccc45)nn3C3CCC3)C2)c2ccccc12` [Compound 18], in experiment [1], the concentration for half-maximal inhibition (IC50) was 1.85 µM. Besides, the EC50 in experiment [2] (setting [4]) is 11.1 µM.
For `O=C(NCc1ccccc1)c1nn(CCO)c2c1CN(Cc1ccc(OC(F)(F)F)cc1)CC2` [Compound 24] the same measures were 25 µM and 80.4 µM.
As to `O=C(NCc1ccccc1)c1nn(CCO)c2c1CN(Cc1ccn(-c3ccccc3)c1)CC2` [Compound 27], the IC50 in experiment [1] was determined as 39 µM. Further, the EC50 in experiment [2] (setting [4]) turned out to be 196 µM.
For `O=C(NCc1ccccc1)c1nn(CCO)c2c1CN(Cc1cc3ccccc3c3ccccc13)CC2` [Compound 30], the IC50 in experiment [1] stood at 6.6 µM. This compound also registered an EC50 in experiment [2] (AlphaScreen EC50 [μM] (±SD)) of 29.8 µM.
As for `COc1ccc(CN2CCc3c(c(C(=O)NCc4cccc5ccccc45)nn3-c3ccccc3)C2)c2ccccc12` [Compound 37], the IC50 in experiment [1] stood at 3.5 µM. In experiment [2] (setting [4]), the EC50 came out at 7.61 µM.
For `O=C(NCc1cccc2ccccc12)c1nn(CCO)c2c1CN(Cc1ccc(-c3ccccc3)cc1)CC2` [Compound 38] the same measures were 3.7 µM and 10.4 µM.
For `O=C(NCc1cccc2ccccc12)c1nn(CCO)c2c1CN(Cc1cccc(-c3ccccc3)c1)CC2` [Compound 39] the same measures were 5.5 µM and 12.7 µM.
For `O=C(NCc1cccc2ccccc12)c1nn(CCO)c2c1CN(Cc1cccc3cccnc13)CC2` [Compound 45] the same measures were 10.7 µM and 53.8 µM.
As for `O=C(NCc1cccc2ccccc12)c1nn(CCO)c2c1CN(Cc1ccc(C(F)(F)F)cc1)CC2` [Compound 48], the IC50 in experiment [1] worked out at 5.4 µM. Further, in experiment [2] (setting [4]), the EC50 came to 34 µM.
For `CCCc1ccc(CN2CCc3c(c(C(=O)NCc4cccc5ccccc45)nn3CCO)C2)cc1` [Compound 49] the same measures were 2.7 µM and 32.5 µM.
For `O=C(NCc1cccc2ccccc12)c1nn(CCO)c2c1CN(Cc1cccc3cc[nH]c13)CC2` [Compound 53] the same measures were 6.8 µM and 39.8 µM.
For `O=C(NCc1cccc2ccccc12)c1nn(CCO)c2c1CN(Cc1cccc3c1OCO3)CC2` [Compound 54] the same measures were 19 µM and 84.4 µM.
As to `COc1ccc(CN2CCc3c(c(C(=O)NCc4cccc5[nH]ccc45)nn3CCO)C2)c2ccccc12` [Compound 60], in experiment [1], the IC50 amounted to 5.6 µM. In addition, in experiment [2] (setting [4]), the concentration giving a half-maximal response (EC50) came out at 20.2 µM.
As for `COc1ccc(CN2CCc3c(c(C(=O)NCc4cccc5cccnc45)nn3CCO)C2)c2ccccc12` [Compound 61], the concentration for half-maximal inhibition (IC50) in experiment [1] stood at 7 µM. Also, in experiment [2] (setting [4]), the concentration for a half-maximal effect (EC50) amounted to 24.1 µM.
For `COc1ccc(CN2CCc3c(c(C(=O)NCc4cccc(C)c4)nn3CCO)C2)c2ccccc12` [Compound 62] the same measures were 4.5 µM and 38.1 µM.
For `COc1ccc(CN2CCc3nn(CCO)c(C(=O)NCc4cccc5ccccc45)c3C2)c2ccccc12` [Compound 90] the same measures were 3.3 µM and 66.1 µM.
For `COc1ccc(CN2CCc3nn4c(c3C2)C(=O)N(Cc2cccc3ccccc23)CC4)c2ccccc12` [Compound 91] the same measures were 6.4 µM and 19.2 µM.
Take `COc1ccc(CN2CCc3c(c(C(=O)NCc4cccc5ccccc45)nn3CCNC(=N)N)C2)c2ccccc12` [Compound 94]: the IC50 in experiment [1] amounted to 0.74 µM. Besides, the EC50 in experiment [2] (setting [4]) stood at 1.4 µM.
For `COc1ccc(CN2CCc3c(c(C(=O)NCc4cccc5ccccc45)nn3CCN)C2)c2c1CCCC2` [Compound 100] the same measures were 0.05 µM and 4.62 µM.
For `NCCn1nc(C(=O)NCc2cccc3ccccc23)c2c1CCN(Cc1ccc(Cl)cc1)C2` [Compound 103] the same measures were 0.18 µM and 10 µM.
For `COc1ccc(CN2CCc3c(c(C(=O)NCc4cccc5ccccc45)nn3CC(O)CN)C2)c2ccccc12` (stereo not shown) [Compound 104] the same measures were 0.2 µM and 10.6 µM.
As to `NCCn1nc(C(=O)NCc2cccc3ccccc23)c2c1CCN(Cc1ccc(Cl)c(Cl)c1)C2` [Compound 105], the IC50 in experiment [1] was found to be 0.34 µM. The EC50 in experiment [2] (setting [4]) came to 11.6 µM.
For `COc1ccc2c(CN3CCc4c(c(C(=O)NCc5cccc6ccccc56)nn4CCO)C3)c[nH]c2c1` [Compound 106] the same measures were 4.6 µM and 25 µM.
For `COc1ccc(CN2CCc3c(c(C(=O)NCc4cc(F)cc5ccccc45)nn3CCO)C2)c2ccccc12` [Compound 107] the same measures were 2.9 µM and 28.7 µM.
For `COc1ccc2[nH]c(CN3CCc4c(c(C(=O)NCc5cccc6ccccc56)nn4CCO)C3)cc2c1` [Compound 110] the same measures were 2.6 µM and 43.8 µM.
For the compound `COc1ccc2c(OC)ccc(CN3CCc4c(c(C(=O)NCc5cccc6ccccc56)nn4CCO)C3)c2c1` [Compound 111], the EC50 in experiment [3] is 52.9 µM.
In the case of `COc1ccc2cc(CN3CCc4c(c(C(=O)NCc5cccc6ccccc56)nn4CCO)C3)ccc2c1` [Compound 114], in experiment [1], the IC50 amounted to 3.9 µM. The EC50 in experiment [2] (setting [4]) stood at 121 µM.
For `O=C(NCc1cccc2ccccc12)c1nn(CCO)c2c1CN(Cc1ccc(F)c3ccccc13)CC2` [Compound 115] the same measures were 5.9 µM and 121 µM.
